We go through five compounds from US20150051138A1, “INHIBITORS OF FURIN AND OTHER PRO-PROTEIN CONVERTASES” (Sanford-Burnham Medical Research Institute, priority 2012, published 2015).

As a reminder, the IC50 is the concentration at which inhibition is half-maximal. For orientation: EC90 means the concentration at which the effect reaches the 90% level.

One assay has as its target T1, Furin (Homo sapiens, UniProt P09958).
T1 construct: Purification of Soluble Furin; inferred from purification by Ni2+-chelating chromatography and imidazole elution; made in house; host or cells: MDCK cells (furin-overexpressing), secreted into culture medium
The assay can be described thus: Furin enzymatic assay, IC50 determination with Pyr-RTKR-AMC substrate. Type of assay: biochemical. The settings on record: furin 50 nM, Pyr-RTKR-AMC 25 μM, 30 min preincubation; read-out: IC50 against Furin. The procedure: Furin-overexpressing MDCK cells were grown using 15 cm plates (Falcon) in DMEM/High modified synthetic media (Thermo Scientific) supplemented with Gentamicin (10 μg/ml). Each two days the medium was collected. Cells were replenished with fresh medium. To remove cell debris, the collected samples were spun at 3000×g and the supernatant fraction was filtered through a 0.22 μm filter (Corning) and then 100-fold concentrated using a Pellicon XL Biomax 10 concentrator (Millipore). Furin was isolated from the concentrated medium samples using Ni^2+-chelating chromatography on a HiTrap Chelating HP 1.6×2.5 cm column (Amersham Biosciences) equilibrated with 20 mM Tris-HCl buffer, pH 8.0, containing 1M NaCl. To remove the impurities, the column was washed with 50 ml of the same buffer containing 25 mM imidazole. Furin was eluted using 500 mM imidazole. The purified fractions were pooled, concentrated using an Amicon Ultra 50K-cutoff membrane (Millipore), dialyzed against PBS and stored at −80° C. According to SDS-PAGE followed by Coomassie staining of the gel, Western blotting and enzyme activity assays the purity of the isolated furin samples was >95%. The typical yield of purified furin was 0.8-1 mg/liter of cell culture medium. Specific activity of purified furin was >120 units where one unit is the amount of furin that will cleave 1.0 pmol methyl-coumaryl-7-amide (AMC) from the Pyr-Arg-Thr-Lys-Arg-methyl-coumaryl-7-amide (Pyr-RTKR-AMC) substrate per min at ambient temperature, pH 7.5.
Furin activity was measured in triplicate in wells of a 96-well plate in 0.2 ml 50 mM HEPES, pH 7.5, containing 1 mM CaCl2, 0.005% Brij-35 and 20% glycerol. Pyr-RTKR-AMC (25 μM) was used as a substrate. The concentration of furin in the reactions was 50 nM. The steady-state rate of substrate hydrolysis was monitored continuously (λex=360 nm and λem=465 nm) at 37° C. using a Spectramax Gemini EM fluorescent spectrophotometer (Molecular Devices).
Furin (50 nM) was preincubated for 30 min at 20° C. with increasing concentrations of the individual compounds in 0.1 ml of 50 mM HEPES, pH 7.5, containing 1 mM CaCl2, 20% glycerol and 0.005% Brij 35. The Pyr-RTKR-AMC substrate ([…]) was added in 0.1 ml of the same buffer. Reaction velocity was monitored continuously at λex=360 nm and λem=465 nm on a Spectramax Gemini EM fluorescence spectrophotometer. All assays were performed in triplicate in wells of a 96-well plate. IC50 values were calculated by determining the concentrations of the compounds needed to inhibit 50% of the furin activity against Pyr-RTKR-AMC substrate. GraphPad Prism was used as fitting software.

Another assay deals with Dengue. The assay can be described thus: Dengue viral replication assay, secondary CPE/virus yield reduction (VYR). Type of assay: cell-based. Conditions: read-out: cellular activity against Dengue (EC90). The procedure:
Primary cytopathic effect (CPE) reduction assay. Four-concentration CPE inhibition assays are performed. Confluent or near-confluent cell culture monolayers in 96-well disposable microplates are prepared. Cells are maintained in MEM or DMEM supplemented with FBS as required for each cell line. For antiviral assays the same medium is used but with FBS reduced to 2% or less and supplemented with 50 μg/ml gentamicin. The test compound is prepared at four log 10 final concentrations, usually 0.1, 1.0, 10, and 100 μg/ml or μM. The virus control and cell control wells are on every microplate. In parallel, a known active drug is tested as a positive control drug using the same method as is applied for test compounds. The positive control is tested with each test run. The assay is set up by first removing growth media from the 96-well plates of cells. Then the test compound is applied in 0.1 ml volume to wells at 2× concentration. […] The dye content in each well is quantified using a 96-well spectrophotometer at 540 nm wavelength. […]
Secondary CPE/Virus yield reduction (VYR) assay. […] The incorporated dye content is quantified as described above. […] Compounds observed to be active above are further evaluated by VYR assay. […] Wells are scored for presence or absence of virus after distinct CPE (measured by neutral red uptake) is observed. […]

T1 sequence (P09958 108-715 limits assumed): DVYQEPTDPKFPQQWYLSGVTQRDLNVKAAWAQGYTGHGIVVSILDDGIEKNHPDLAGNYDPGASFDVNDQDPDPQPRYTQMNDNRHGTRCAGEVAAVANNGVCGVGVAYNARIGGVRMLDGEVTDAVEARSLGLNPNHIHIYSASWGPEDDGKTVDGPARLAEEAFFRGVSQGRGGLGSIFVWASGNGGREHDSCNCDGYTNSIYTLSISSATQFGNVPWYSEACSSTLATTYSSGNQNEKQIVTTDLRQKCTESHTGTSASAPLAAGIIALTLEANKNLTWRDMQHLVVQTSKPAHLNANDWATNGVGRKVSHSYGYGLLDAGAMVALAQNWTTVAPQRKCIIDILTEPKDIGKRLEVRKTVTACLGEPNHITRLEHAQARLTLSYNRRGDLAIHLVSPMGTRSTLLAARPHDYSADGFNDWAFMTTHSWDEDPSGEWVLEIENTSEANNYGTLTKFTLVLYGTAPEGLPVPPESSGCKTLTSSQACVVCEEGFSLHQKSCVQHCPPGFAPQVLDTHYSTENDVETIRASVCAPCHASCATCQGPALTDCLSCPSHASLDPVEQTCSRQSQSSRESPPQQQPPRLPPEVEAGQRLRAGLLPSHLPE

`CC(=O)N[C@@H](CCCNC(=N)N)C(=O)N[C@H](C(=O)N[C@@H](Cc1ccc(N=C(N)N)cc1)C(=O)NCc1ccc(C(=N)N)cc1F)C(C)C` [Compound C]: the IC50 on Furin was 9 nM.
On to `CC(=O)N[C@@H](CCCNC(=N)N)C(=O)N[C@H](C(=O)N[C@@H](Cc1ccc(N=C(N)N)cc1)C(=O)NCc1ccc(/C(N)=N/O)cc1)C(C)C` [Compound D], for which the IC50 on Furin turned out to be 1200 nM.
In the case of `CC(=O)N[C@@H](CCCNC(=N)N)C(=O)N[C@H](C(=O)N[C@@H](Cc1ccc(N=C(N)N)cc1)C(=O)NCc1ccc(C(=N)N)cc1)C(C)C` [Compound A], the EC90 with Dengue is 14000 nM. Also, on Furin, the IC50 was 7 nM.
For the compound `CC(=O)N[C@@H](CCCNC(=N)N)C(=O)N[C@H](C(=O)N[C@@H](Cc1ccc(N=C(N)N)cc1)C(=O)NCc1ccc(C(=N)N)c(F)c1)C(C)C` [Compound B], the IC50 on Furin came to 3.7 nM.
As to `CC(C)[C@H](NS(=O)(=O)Cc1ccc(C(=N)N)cc1)C(=O)N[C@@H](CCCNC(=N)N)C(=O)NCc1ccc(C(=N)N)cc1` [Compound E], the IC50 on Furin amounted to 300 nM.
